Reference: patent US9840513B2 (AbbVie S.à.r.l., priority 2015, dated 2017)

Tests used:
[1] = molecular target: T1, F508delCFTR cell surface expression in CFBE41o-F508delCFTR-HRP cells (Homo sapiens, UniProt P13569, DEL508-508); assay: Cell Surface Expression-Horse Radish Peroxidase (CSE-HRP) Assay; assay type: cell-based; conditions: for EC50: CFBE41o-F508delCFTR-HRP cells, 18-24 hours at 33° C., 8-point curve, highest concentration 20 μM; for Maximum % activity (%): maximum at any tested concentration, normalized to on-plate positive control (3 μM)
T1 construct: fused on or other part: Horseradish peroxidase (HRP) reporter inserted in the fourth exofacial (extracellular) loop of CFTR; expression is doxycycline-inducible
T1 sequence (P13569 with tags, fused parts or gaps DEL508-508 limits assumed): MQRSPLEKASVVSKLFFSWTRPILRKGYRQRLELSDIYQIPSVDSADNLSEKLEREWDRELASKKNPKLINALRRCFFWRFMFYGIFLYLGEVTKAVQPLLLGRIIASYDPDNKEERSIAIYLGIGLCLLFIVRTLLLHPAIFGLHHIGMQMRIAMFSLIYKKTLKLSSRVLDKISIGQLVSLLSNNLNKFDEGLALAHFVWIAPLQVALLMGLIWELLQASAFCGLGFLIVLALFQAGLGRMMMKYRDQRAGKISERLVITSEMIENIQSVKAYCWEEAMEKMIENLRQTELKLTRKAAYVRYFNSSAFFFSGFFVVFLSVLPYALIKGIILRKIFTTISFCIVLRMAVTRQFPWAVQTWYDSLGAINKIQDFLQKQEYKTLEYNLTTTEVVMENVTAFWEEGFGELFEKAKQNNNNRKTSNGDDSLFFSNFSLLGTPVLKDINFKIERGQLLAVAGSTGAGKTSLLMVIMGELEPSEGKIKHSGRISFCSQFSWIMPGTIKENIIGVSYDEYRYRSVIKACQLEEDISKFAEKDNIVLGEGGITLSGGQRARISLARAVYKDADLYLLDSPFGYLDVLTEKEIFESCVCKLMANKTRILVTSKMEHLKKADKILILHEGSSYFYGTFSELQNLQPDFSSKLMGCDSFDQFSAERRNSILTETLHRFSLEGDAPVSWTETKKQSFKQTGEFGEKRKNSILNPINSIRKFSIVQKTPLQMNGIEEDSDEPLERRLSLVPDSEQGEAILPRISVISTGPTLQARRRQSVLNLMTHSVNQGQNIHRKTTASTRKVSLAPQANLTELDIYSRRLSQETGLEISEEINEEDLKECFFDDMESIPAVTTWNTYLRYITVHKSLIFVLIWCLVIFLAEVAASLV
T1 sequence (P13569 919-1480 limits assumed, stated change not applied): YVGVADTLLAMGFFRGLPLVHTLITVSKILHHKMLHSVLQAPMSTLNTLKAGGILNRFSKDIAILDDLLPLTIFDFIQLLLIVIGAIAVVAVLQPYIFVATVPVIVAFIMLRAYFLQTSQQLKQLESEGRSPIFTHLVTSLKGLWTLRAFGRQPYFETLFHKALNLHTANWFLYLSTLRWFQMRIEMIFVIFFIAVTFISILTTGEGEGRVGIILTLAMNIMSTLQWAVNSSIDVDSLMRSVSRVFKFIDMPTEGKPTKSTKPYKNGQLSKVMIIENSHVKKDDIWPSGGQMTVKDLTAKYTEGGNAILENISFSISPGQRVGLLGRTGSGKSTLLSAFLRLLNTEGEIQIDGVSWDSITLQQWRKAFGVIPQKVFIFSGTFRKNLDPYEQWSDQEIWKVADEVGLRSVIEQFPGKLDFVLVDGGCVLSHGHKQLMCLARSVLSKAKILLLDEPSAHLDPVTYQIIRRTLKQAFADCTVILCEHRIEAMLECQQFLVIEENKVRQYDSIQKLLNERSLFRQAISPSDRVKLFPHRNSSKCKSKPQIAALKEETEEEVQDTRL
Summary of the method: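 Correctors incubated 18-24 h at 33 °C on doxycycline-induced (0.5 μg/mL, 72 h) CFBE41o-F508delCFTR-HRP cells, 3-fold series from 20 μM. After DPBS washes, luminol luminescence read; activity expressed relative to DMSO and a 3 μM positive control, EC50 fitted from triplicate plates.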

[2] = molecular target: T2, F508delCFTR in primary hBE cells with F508del/F508del CFTR mutation (Homo sapiens, UniProt P13569, DEL508-508); assay: Transepithelial Clamp Circuit on Human Bronchial Epithelial Cells Conductance Assay (hBE-TECC); assay type: cell-based; conditions: for EC50: primary hBE cells F508del/F508del, 18-24 hours at 37° C., equivalent short circuit current, 6 concentrations
T2 construct: cells isolated from CF patients with the homozygous mutation; endogenous in cells; host or cells: primary human bronchial epithelial (hBE) cells from F508del/F508del CF patients
T2 sequence (P13569 with tags, fused parts or gaps DEL508-508): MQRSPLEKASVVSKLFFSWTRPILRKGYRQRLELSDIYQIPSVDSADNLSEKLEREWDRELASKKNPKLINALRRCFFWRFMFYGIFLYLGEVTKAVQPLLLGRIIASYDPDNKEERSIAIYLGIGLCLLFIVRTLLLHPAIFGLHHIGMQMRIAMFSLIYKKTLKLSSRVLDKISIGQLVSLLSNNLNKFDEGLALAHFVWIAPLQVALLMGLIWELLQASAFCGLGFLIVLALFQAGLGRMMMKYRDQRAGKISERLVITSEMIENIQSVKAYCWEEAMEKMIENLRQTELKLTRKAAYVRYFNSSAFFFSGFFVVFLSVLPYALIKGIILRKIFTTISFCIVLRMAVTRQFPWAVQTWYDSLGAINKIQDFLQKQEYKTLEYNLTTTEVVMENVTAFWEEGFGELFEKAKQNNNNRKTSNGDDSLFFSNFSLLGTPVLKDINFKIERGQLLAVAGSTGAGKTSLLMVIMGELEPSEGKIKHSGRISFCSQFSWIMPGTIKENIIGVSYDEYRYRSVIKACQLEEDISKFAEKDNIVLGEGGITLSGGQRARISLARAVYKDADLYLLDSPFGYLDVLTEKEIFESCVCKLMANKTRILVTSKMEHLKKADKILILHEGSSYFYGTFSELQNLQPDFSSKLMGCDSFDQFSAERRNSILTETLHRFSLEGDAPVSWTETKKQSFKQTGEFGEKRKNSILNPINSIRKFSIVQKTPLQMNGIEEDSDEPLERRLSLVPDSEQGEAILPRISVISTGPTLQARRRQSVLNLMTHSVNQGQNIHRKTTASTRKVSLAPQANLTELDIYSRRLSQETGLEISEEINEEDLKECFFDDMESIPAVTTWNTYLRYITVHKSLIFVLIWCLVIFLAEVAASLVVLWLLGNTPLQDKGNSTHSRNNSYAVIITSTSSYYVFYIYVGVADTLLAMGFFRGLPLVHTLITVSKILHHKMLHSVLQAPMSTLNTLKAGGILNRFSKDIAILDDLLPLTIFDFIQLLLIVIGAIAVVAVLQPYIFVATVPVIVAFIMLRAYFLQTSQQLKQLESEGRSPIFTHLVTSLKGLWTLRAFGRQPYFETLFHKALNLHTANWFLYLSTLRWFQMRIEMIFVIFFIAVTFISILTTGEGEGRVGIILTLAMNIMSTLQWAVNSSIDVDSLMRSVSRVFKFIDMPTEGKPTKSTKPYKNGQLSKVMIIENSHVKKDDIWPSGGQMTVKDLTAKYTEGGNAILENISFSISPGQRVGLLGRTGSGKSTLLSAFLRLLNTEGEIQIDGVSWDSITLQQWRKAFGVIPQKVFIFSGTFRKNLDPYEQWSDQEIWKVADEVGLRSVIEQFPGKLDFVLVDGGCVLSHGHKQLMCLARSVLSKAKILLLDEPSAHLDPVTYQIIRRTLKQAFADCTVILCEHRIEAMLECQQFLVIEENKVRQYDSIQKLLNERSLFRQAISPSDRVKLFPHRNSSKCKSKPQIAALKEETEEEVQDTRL
Source text: Transepithelial Clamp Circuit on Human Bronchial Epithelial Cells Conductance Assay:
A cell based assay using the primary human bronchial epithelial cells (hBE) was used as a secondary assay to test novel F508delCFTR correctors for their activity on primary hBE cells with F508del/F508del CFTR mutation. The assay used a TECC-24 (Transepithelial Clamp Circuit for 24 wells) instrument that measures the functionality of the mutated channel by measuring the equivalent short circuit current (Ieq) generated by the polarized epithelial cells. The instrument works by measuring the transepithelial potential difference (Vt) and transepithelial resistance (Rt) in an open circuit format, and the Ieq is calculated by using Ohms law (Ieq=Vt/Rt). The assay was run in a 24-well format and all 24-wells were measured at the same time point giving a higher throughput for this assay.
Primary human bronchial epithelial (hBE) cells from F508del/F508delCFTR patients were expanded from 1×10^6 to 250×10^6 cells (Neuberger T, Burton B, Clark H and VanGoor F; Cystic Fibrosis, Methods in Mole Biol 741; eds. Amaral M D and Kunzelmann K, 2011). For this purpose, cells isolated from CF patients with the homozygous mutation were seeded onto 24 well Corning (Cat #3378) filter plates that were coated with 3T3 conditioned media and grown at an air-liquid interface for 35 days using an Ultroser® G supplemented differentiation media. Apical surface mucus was removed 72 hours before the experiment using 3 mM dithiothreitol (DTT) in phosphate buffered saline (PBS). The apical surface was washed again 24 hours before the experiment using PBS. The cells were incubated with the desired dose response of the corrector compounds 18-24 hours at 37° C., 5% CO2. The corrector compounds are only added on the basolateral side of the epithelial cells.
On the day of measuring the corrector activity on the TECC, the cells were switched into a bicarbonate and serum free F-12 Coon's medium and allowed to equilibrate for 90 minutes in a CO2 free incubator. At the time of measurement, the apical and basolateral sides of the filter were bathed with the F-12 Coon's modification media (with 20 mM 4-(2-hydroxyethyl)-1-piperazineethanesulfonic acid (HEPES), pH 7.4 (using 1 M tris(hydroxymethyl)aminomethane (Tris)), and the measurements were made at 36.5° C. Transepithelial voltage (Vt) and transepithelial resistance (Rt) were measured using a 24 channel transepithelial current clamp (TECC-24). Current responses to the sequential addition of benzamil (apical 6 μM addition; for inhibiting epithelial ENaC channel), forskolin (apical and basolateral 10 μM addition; for activating the CFTR channel), control potentiator (N-(3-carbamoyl-5,5,7,7-tetramethyl-4,7-dihydro-5H-thieno[2,3-c]pyran-2-yl)-1H-pyrazole-5-carboxamide; apical and basolateral […] addition; for potentiating the CFTR channel) and bumetanide (basolateral 20 μM addition; for inhibiting the Na:2Cl:K co-transporter, an indirect measure of inhibiting the Cl-secretion driven by CFTR channel) were measured.
All plates contained negative controls (dimethyl sulfoxide, DMSO) which coupled with the control potentiator (N-(3-carbamoyl-5,5,7,7-tetramethyl-4,7-dihydro-5H-thieno[2,3-c]pyran-2-yl)-1H-pyrazole-5-carboxamide) sets the null response and positive controls (3 μM of 3-[(2R,4R)-4-({[1-(2,2-difluoro-1,3-benzodioxol-5-yl)cyclopropyl]carbonyl}amino)-7-methoxy-3,4-dihydro-2H-chromen-2-yl]benzoic acid) coupled with the control potentiator sets the 100% response to measure the correction of the mutated CFTR channel. The maximum percent activity is reported relative to the positive control value.
The % activity measured at each of the 6 test concentrations of the test compound was normalized to the on-plate positive control using the following formula: % activity=[[…]]*100 […]

[3] = relative to positive control (3 μM) coupled with control potentiator

Structure (SMILES): COc1ccc2c(c1)O[C@@H](c1ccc(C(=O)O)cc1)C[C@H]2NC(=O)[C@]1(C)CCc2c1ccc1c2OCO1 [Example 46, 4-[(2R,4R)-7-methoxy-4-{[(6R)-6-methyl-7,8-dihydro-2H,6H-indeno[4,5-d][1,3]dioxole-6-carbonyl]amino}-3,4-dihydro-2H-1-benzopyran-2-yl]benzoic acid]
- EC50 [1]: 430 nM
- Maximum % activity (%) [1]: 142%
- EC50 [2]: 220 nM
- Maximum % activity (%) [2, 3]: 105%

Structure (SMILES): Cc1ccc(NC(=O)[C@@]2(C)COc3cc4c(cc32)OC(F)(F)O4)nc1-c1ccc(C(=O)O)cc1 [Example 83, 4-(6-{[(7R)-2,2-difluoro-7-methyl-6,7-dihydro-2H-furo[2,3-f][1,3]benzodioxole-7-carbonyl]amino}-3-methylpyridin-2-yl)benzoic acid]
- EC50 [1]: 240 nM
- Maximum % activity (%) [1]: 172%
- Maximum % activity (%) ([2]; testing concentration 10 μM): 100%

Structure (SMILES): COc1ccc2c(c1)O[C@@H](c1ccc(C(=O)O)cn1)C[C@H]2NC(=O)[C@@]1(C)COc2cc3c(cc21)OC(F)(F)O3 [Example 89, 6-[(2R,4R)-4-{[(7R)-2,2-difluoro-7-methyl-6,7-dihydro-2H-furo[2,3-f][1,3]benzodioxole-7-carbonyl]amino}-7-methoxy-3,4-dihydro-2H-1-benzopyran-2-yl]pyridine-3-carboxylic acid]
- EC50 [1]: 10 nM
- Maximum % activity (%) [1]: 112%
- Maximum % activity (%) ([2]; testing concentration 1 μM): 84%

Structure (SMILES): C[C@]1(C(=O)Nc2cccc(N3CC[C@H](C(=O)O)C3)n2)COc2cc3c(cc21)OC(F)(F)O3 [Example 90, (3S)-1-(6-{[(7R)-2,2-difluoro-7-methyl-6,7-dihydro-2H-furo[2,3-f][1,3]benzodioxole-7-carbonyl]amino}pyridin-2-yl)pyrrolidine-3-carboxylic acid]
- EC50 [1]: 620 nM
- Maximum % activity (%) [1]: 127%
- Maximum % activity (%) ([2]; testing concentration 1 μM): 65%

Structure (SMILES): C[C@]1(C(=O)Nc2ccc(Cl)c(-c3cccc(C(=O)O)c3)n2)COc2cc3c(cc21)OC(F)(F)O3 [Example 95, 3-(3-chloro-6-{[(7R)-2,2-difluoro-7-methyl-6,7-dihydro-2H-furo[2,3-f][1,3]benzodioxole-7-carbonyl]amino}pyridin-2-yl)benzoic acid]
- EC50 [1]: 590 nM
- Maximum % activity (%) [1]: 167%
- Maximum % activity (%) ([2]; testing concentration 1 μM): 50%

Structure (SMILES): CC(C)(CO)c1cc2cc(NC(=O)[C@@]3(C)COc4cc5c(cc43)OC(F)(F)O5)c(F)cc2n1C[C@@H](O)CO [Example 130, (7R)—N-{1-[(2R)-2,3-dihydroxypropyl]-6-fluoro-2-(1-hydroxy-2-methylpropan-2-yl)-1H-indol-5-yl}-2,2-difluoro-7-methyl-6,7-dihydro-2H-furo[2,3-f][1,3]benzodioxole-7-carboxamide]
- EC50 [1]: 390 nM
- Maximum % activity (%) [1]: 105%
- EC50 [2]: 67 nM
- Maximum % activity (%) [2, 3]: 72%

Structure (SMILES): C[C@]1(C(=O)Nc2cc3cc(C4(CO)CCC4)n(C[C@@H](O)CO)c3cc2F)COc2cc3c(cc21)OC(F)(F)O3 [Example 134, (7R)—N-{1-[(2R)-2,3-dihydroxypropyl]-6-fluoro-2-[1-(hydroxymethyl)cyclobutyl]-1H-indol-5-yl}-2,2-difluoro-7-methyl-6,7-dihydro-2H-furo[2,3-f][1,3]benzodioxole-7-carboxamide]
- EC50 [1]: 480 nM
- Maximum % activity (%) [1]: 109%
- EC50 [2]: 197 nM
- Maximum % activity (%) [2, 3]: 79%

Structure (SMILES): C[C@]1(C(=O)Nc2cc3cc(C4(CO)COC4)n(C[C@@H](O)CO)c3cc2F)COc2cc3c(cc21)OC(F)(F)O3 [Example 135, (7R)—N-{1-[(2R)-2,3-dihydroxypropyl]-6-fluoro-2-[3-(hydroxymethyl)oxetan-3-yl]-1H-indol-5-yl}-2,2-difluoro-7-methyl-6,7-dihydro-2H-furo[2,3-f][1,3]benzodioxole-7-carboxamide]
- EC50 [1]: 2560 nM
- Maximum % activity (%) [1]: 58%
- EC50 [2]: 2700 nM
- Maximum % activity (%) [2, 3]: 62%

Structure (SMILES): C[C@]1(C(=O)Nc2cc3cc(C4(CO)CC4)n(C[C@@H](O)CO)c3cc2F)COc2cc3c(cc21)OC(F)(F)O3 [Example 136, (7R)—N-{1-[(2R)-2,3-dihydroxypropyl]-6-fluoro-2-[1-(hydroxymethyl)cyclopropyl]-1H-indol-5-yl}-2,2-difluoro-7-methyl-6,7-dihydro-2H-furo[2,3-f][1,3]benzodioxole-7-carboxamide]
- EC50 [1]: 910 nM
- Maximum % activity (%) [1]: 99%
- EC50 [2]: 745 nM
- Maximum % activity (%) [2, 3]: 48%

Structure (SMILES): CC(C)(CO)c1nc2cc(NC(=O)[C@@]3(C)COc4cc5c(cc43)OC(F)(F)O5)c(F)cc2n1C[C@@H](O)CO [Example 137, (7R)—N-{1-[(2R)-2,3-dihydroxypropyl]-6-fluoro-2-(1-hydroxy-2-methylpropan-2-yl)-1H-benzimidazol-5-yl}-2,2-difluoro-7-methyl-6,7-dihydro-2H-furo[2,3-f][1,3]benzodioxole-7-carboxamide]
- EC50 [1]: 2060 nM
- Maximum % activity (%) [1]: 72%
- EC50 [2]: 2580 nM
- Maximum % activity (%) [2, 3]: 67%

Structure (SMILES): COc1ccc2c(c1)O[C@@H](c1cnc(C(=O)O)cn1)C[C@H]2NC(=O)[C@@]1(C)COc2cc3c(cc21)OC(F)(F)O3 [Example 144, 5-[(2R,4R)-4-{[(7R)-2,2-difluoro-7-methyl-6,7-dihydro-2H-furo[2,3-f][1,3]benzodioxole-7-carbonyl]amino}-7-methoxy-3,4-dihydro-2H-1-benzopyran-2-yl]pyrazine-2-carboxylic acid]
- EC50 [1]: 1330 nM
- Maximum % activity (%) [1]: 157%
- EC50 [2]: 550 nM
- Maximum % activity (%) [2, 3]: 78%

Structure (SMILES): C[C@]1(C(=O)N[C@@H]2C[C@H](c3ccc(C(=O)O)cn3)Oc3cc(OC(F)(F)F)ccc32)COc2cc3c(cc21)OC(F)(F)O3 [Example 145, 6-[(2R,4R)-4-{[(7R)-2,2-difluoro-7-methyl-6,7-dihydro-2H-furo[2,3-f][1,3]benzodioxole-7-carbonyl]amino}-7-(trifluoromethoxy)-3,4-dihydro-2H-1-benzopyran-2-yl]pyridine-3-carboxylic acid]
- EC50 [1]: 3 nM
- Maximum % activity (%) [1]: 118%
- EC50 [2]: 0.831 nM
- Maximum % activity (%) [2, 3]: 91%

Structure (SMILES): COc1ccc2c(c1)O[C@@H](c1ccc(C(=O)O)nc1)C[C@H]2NC(=O)[C@@]1(C)COc2cc3c(cc21)OC(F)(F)O3 [Example 146, 5-[(2R,4R)-4-{[(7R)-2,2-difluoro-7-methyl-6,7-dihydro-2H-furo[2,3-f][1,3]benzodioxole-7-carbonyl]amino}-7-methoxy-3,4-dihydro-2H-1-benzopyran-2-yl]pyridine-2-carboxylic acid]
- EC50 [1]: 335 nM
- Maximum % activity (%) [1]: 153%
- EC50 [2]: 160 nM
- Maximum % activity (%) [2, 3]: 89%
